Measured values from ChEMBL document CHEMBL1149317, “Synthesis and in vitro antifolate activity of rotationally restricted aminopterin and methotrexate analogues” (J Med Chem, 2004).

Legend:
[1] = target: T1, Reduced folate transporter (Homo sapiens, UniProt P41440); experiment: Inhibition of RFC-mediated [3H]MTX influx into human CCRF-CEM cells; format: cell-based
T1 sequence (P41440 whole entry): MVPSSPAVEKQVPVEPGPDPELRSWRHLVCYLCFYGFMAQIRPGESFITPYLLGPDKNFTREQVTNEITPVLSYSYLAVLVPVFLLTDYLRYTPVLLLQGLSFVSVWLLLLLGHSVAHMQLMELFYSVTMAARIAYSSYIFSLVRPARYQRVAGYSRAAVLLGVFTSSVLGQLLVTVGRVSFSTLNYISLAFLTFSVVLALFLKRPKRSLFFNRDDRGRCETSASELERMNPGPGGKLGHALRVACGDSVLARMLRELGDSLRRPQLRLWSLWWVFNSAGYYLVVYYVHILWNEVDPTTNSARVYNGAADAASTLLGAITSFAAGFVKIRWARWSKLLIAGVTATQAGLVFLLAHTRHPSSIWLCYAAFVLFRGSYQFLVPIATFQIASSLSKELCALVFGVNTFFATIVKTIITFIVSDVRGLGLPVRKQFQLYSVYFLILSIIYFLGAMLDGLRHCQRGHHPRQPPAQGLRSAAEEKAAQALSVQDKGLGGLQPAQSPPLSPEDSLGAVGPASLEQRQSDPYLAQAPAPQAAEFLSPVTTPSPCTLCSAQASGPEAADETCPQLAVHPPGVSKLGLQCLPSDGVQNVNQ

CCRF-CEM = experiment: Growth inhibition of human CCRF-CEM cells after 72 hrs; format: functional, cell-based
Dihydrofolate reductase = target: T2, Dihydrofolate reductase (Homo sapiens, UniProt P00374); experiment: Inhibition of human DHFR
T2 sequence (P00374 whole entry): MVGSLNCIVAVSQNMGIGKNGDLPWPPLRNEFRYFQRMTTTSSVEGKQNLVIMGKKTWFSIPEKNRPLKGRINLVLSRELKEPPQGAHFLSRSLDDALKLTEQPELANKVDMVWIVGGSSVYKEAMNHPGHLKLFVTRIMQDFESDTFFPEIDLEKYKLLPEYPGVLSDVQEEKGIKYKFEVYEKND

Structure (SMILES)	Ki [1] [nM]	IC50 (CCRF-CEM) [nM]	Ki (Dihydrofolate reductase) [nM]
Nc1nc(N)c2nc(CNc3ccc4c(c3)CN([C@@H](CCC(=O)O)C(=O)O)C4=O)cnc2n1	280	5.1	0.034
CN(Cc1cnc2nc(N)nc(N)c2n1)c1ccc2c(c1)CN([C@@H](CCC(=O)O)C(=O)O)C2=O	1100	140	2.1
Nc1nc(N)c2nc(CNc3ccc4c(c3)CN(C(CCC(=O)O)C(=O)O)C4=O)cnc2n1 (racemic)	530	8.4	0.077
